PubChem BioAssay (NCI)
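Five compound concentrations were applied to cells in 96-well plates for 48 hours; endpoints were derived by simple linear interpolation of the resulting dose-response curve. At the GI50, growth is halved. The concentration for full growth arrest is given as TGI.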

Tests used:
Assay in all cases: NCI-60 cell line screen, 48 h
[1] = tested on: OVCAR-3 ovarian
[2] = tested on: UACC-62 melanoma
[3] = tested on: SN12C renal
[4] = tested on: CAKI-1 renal
[5] = tested on: OVCAR-4 ovarian
[6] = tested on: NCI-H460 lung
[7] = tested on: IGROV1 ovarian
[8] = tested on: NCI-H226 lung
[9] = tested on: 786-0 renal
[10] = tested on: SF-295 CNS

SMILES | GI50 [1] [µM] | TGI [1] [µM] | GI50 [2] [µM] | TGI [2] [µM] | GI50 [3] [µM] | TGI [3] [µM] | GI50 [4] [µM] | TGI [4] [µM] | GI50 [5] [µM] | TGI [5] [µM] | GI50 [6] [µM] | TGI [6] [µM] | GI50 [7] [µM] | TGI [7] [µM] | GI50 [8] [µM] | TGI [8] [µM] | GI50 [9] [µM] | TGI [9] [µM] | GI50 [10] [µM] | TGI [10] [µM]
CCNCCNc1cc(-c2ccc(C(F)(F)F)cc2)c(C#N)c2nc3ccccc3n12 | 0.306 | 1 | 0.496 | 1.82 | 1.34 | 2.83 | 1.11 | 2.31 | 0.469 | 1.78 | 1.22 | 2.73 | 1.45 | 2.99 | 1.7 | 3.53 | 1.57 | 3.06 | 1.83 | 3.34
Cc1cc2ncnn2cc1Nc1ncc2c(n1)n(C1CCOCC1)c(=O)n2C | 6.22 | 72 | 3.5 | 29.3 | 6.21 | > 100 | 2.88 | 52.2 | 3.94 | 42.9 | 4.74 | > 100 | 3.19 | 25.5 | 7.32 | > 100 | 8.29 | 94.8 | 4.98 | 48
C/C(=N\Nc1ccc(Cl)cn1)c1ccc2ccccc2n1 | 0.545 | > 100 | 3.25 | > 100 | 3.19 | > 100 | 2.81 | 87.1 | 1.52 | > 100 | 2.92 | 19.6 | 2.88 | > 100 | 11.5 | > 100 | 2.44 | 7.55 | 3.06 | > 100
CN(C)CCNc1ccc(CO)c2oc3ccc(O)cc3c(=O)c12 | – | 42.1 | – | 25 | – | > 66.3 | – | > 100 | – | 28.7 | – | 17.4 | – | 57.2 | – | 47.7 | – | 46.1 | – | 41.5
CCOC(=O)CCC(=O)C1c2cccc(O)c2C(=O)c2c(O)cc(C)cc21 (stereo not given) | – | 1.18 | – | 1.48 | – | 3.75 | – | 3.25 | – | 1.76 | – | 1.27 | – | 0.846 | – | 1.75 | – | 2.63 | – | 0.878
COc1ccc(C2=C(Cl)c3cc(OC)c(OC)cc3C2Cl)cc1 (stereo not given) | – | 30.9 | – | 31.4 | – | 30.5 | – | 34.6 | – | 35.4 | – | 27.4 | – | 35.7 | – | 66 | – | 28.6 | – | 34.1
COc1ccc(C(=O)c2cc(OC)c(OC)c(OC)c2)cc1/C=C/C(=O)c1ccc(F)cc1 | 4.83 | 15.5 | 2.01 | 5.52 | 2.62 | 8.18 | 2.78 | 14.6 | 4.55 | 33.6 | 16 | 52.7 | 2.59 | 6.73 | 3.57 | 18.1 | 2.15 | 5.57 | 7.21 | 37.3
COc1cc2c(cc1OCCCCC(=O)Nc1cc3c4ccccc4ccc3c3ccccc13)N=C[C@@H]1CCCN1C2=O | 3.02 | 10.1 | 0.658 | 8.24 | 22.6 | 89.3 | 3.44 | 13.1 | 5.16 | 22.8 | 5.33 | 51.5 | 2.11 | > 25.6 | 0.665 | 10.8 | 7.21 | 18.8 | 6.98 | 63.1
Nc1nc(Nc2cccnc2)sc1C(=O)c1ccccc1F | 2.82 | > 28.1 | 1.78 | 5.34 | 3.02 | > 100 | 1.94 | 6.86 | 8.74 | 76.6 | 2.57 | 17.9 | 2.17 | > 29.1 | 2.67 | 31.4 | 3.18 | > 34.9 | 2.69 | > 26.9
COc1ccc(-c2[nH]c3ccc(OC)cc3c2/C=C(\C#N)S(=O)(=O)c2ccccc2)cc1 | 0.356 | 1.62 | 0.644 | > 61.1 | 2.2 | > 100 | 4.22 | > 100 | 2.09 | > 100 | 0.659 | > 26 | 3.76 | > 45.9 | 3.51 | > 100 | 2.03 | > 100 | 0.709 | > 23.9
COc1c(C(=O)/C=C/c2ccccc2)c(O)cc2occc12 | 3.76 | 11.3 | 4.15 | 15.1 | 4.48 | 15.8 | 8.07 | 29.9 | 5.4 | 26.6 | 3.02 | 8.92 | 3.51 | 11.4 | 6.03 | 20.8 | 16.2 | 31.8 | 7.83 | 21.4
NS(=O)(=O)c1ccc(-c2ccc3c(NC(=O)C4CC4)n[nH]c3c2)cc1 | > 25 | > 25 | > 25 | > 25 | > 25 | > 25 | > 25 | > 25 | > 25 | > 25 | > 25 | > 25 | > 25 | > 25 | > 25 | > 25 | > 25 | > 25 | > 25 | > 25
CCOC(=O)N[C@@H]1C(CC(=O)OC)O[C@H]2OC(C)(C)O[C@H]21 (stereo not given in full) | – | > 100 | – | > 100 | – | > 100 | – | > 100 | – | > 100 | – | > 100 | – | > 100 | – | > 100 | – | > 100 | – | > 100
CC(=O)O[C@H]1CCC2[C@@H]3CC[C@]4(C)CC(=O)C=C[C@]4(C)C3CC[C@@]21C (stereo not given in full) | – | 31.6 | – | 30.4 | – | 55.9 | – | > 100 | – | 31.8 | – | 32 | – | 58.3 | – | > 77.7 | – | > 78.2 | – | > 100
Clc1cc(Cl)c2ns[s+]c2c1Cl | – | > 100 | – | > 100 | – | > 100 | – | > 100 | – | > 100 | – | > 100 | – | > 100 | – | > 100 | – | > 100 | – | > 100
